Consider one molecule from US12171797B2, “Composition for ameliorating premenstrual syndrome symptoms, including chrysanthemum zawadskii extract” (GENENCELL INC., priority 2019, dated 2024).

The test system of the test is hyperprolactinemia-induced female rats. The test can be described thus: Hyperprolactinemia-induced (metoclopramide) animal model of premenstrual syndrome, serum prolactin and progesterone by ELISA. The following applies: 50 mg/kg metoclopramide to the abdominal cavity for 5 days. Type of test: in vivo. The protocol: Metoclopramide is used as an antiemetic drug, and increases the secretion of prolactin by inhibiting dopamine secretion, and accordingly, it is known as a drug that inhibits the secretion of progesterone, luteinizing hormone, and follicle-stimulating hormone (Wang et al., 2014). Therefore, in the present invention, 50 mg/kg of metoclopramide was administered to the abdominal cavity of female rats for 5 days, after which hyperprolactinemia was induced to establish an animal model of premenstrual syndrome caused by hormone secretion disorder. Rats (females) were obtained from Raonbio, and were acclimatized for 1 week while general solid feed and water were freely supplied thereto. The environmental conditions of the animal room were set to a temperature of 23±3° C., a relative humidity of 50±10%, a lighting time of 12 hours (8 am to 8 pm), a ventilation frequency of 10 to 20 times/hour, and an illumination intensity of 150 to 300 Lux. During the experiment, the temperature and humidity of the animal room were automatically controlled using a thermo-hygrostat. […] After termination of the experiment, blood was collected, serum was isolated therefrom, and the amounts of secreted prolactin and progesterone in the serum were measured using an ELISA kit. […]

For `CCN(CC)CCNC(=O)c1cc(Cl)c(N)cc1OC` [metoclopramide, Metoclopramide], the “Prolactin levels in the serum after model induction” value (FIG. 1) is listed as “increased”. Besides, for the setting “FIG. 2”, the “Progesterone levels in the serum after model induction (fraction of normal)” value was “about ⅕”.
